Experimental data from patent US12723063B2, “GIPR-agonist compounds” (Eli Lilly and Company, priority 2019, dated 2026).
*1 amine or outer side, *2 acyl side, *3 side chain or, on linkers, in order; H or OH if unused. Where a SMILES comes first, the peptide text is derived from it. Side-chain parts run from the residue outwards. [ ]: non-standard residue; d: D form. The star is where a group is joined. C20 diacid = O=C(O)CCCCCCCCCCCCCCCCCCC(=O)*; γGlu = O=C(O)[C@H](CCC(=O)[*:2])N[*:1]; 4Pal = N[C@@H](Cc1ccncc1)C(=O)O; αMeL = CC(C)C[C@](C)(N)C(=O)O; AEEA = NCCOCCOCC(=O)O; Aib = CC(C)(N)C(=O)O

How the values were obtained:
human GIPR = molecular target: T1, human GIPR (Homo sapiens, UniProt P48546); test: [125I]-GIP binding, SPA with WGA beads, 0.1% bacitracin; settings: geometric mean, read-out: hGIPR Ki
T1 construct: expressed in transfected cells; crude membranes
T1 sequence (P48546 22-466): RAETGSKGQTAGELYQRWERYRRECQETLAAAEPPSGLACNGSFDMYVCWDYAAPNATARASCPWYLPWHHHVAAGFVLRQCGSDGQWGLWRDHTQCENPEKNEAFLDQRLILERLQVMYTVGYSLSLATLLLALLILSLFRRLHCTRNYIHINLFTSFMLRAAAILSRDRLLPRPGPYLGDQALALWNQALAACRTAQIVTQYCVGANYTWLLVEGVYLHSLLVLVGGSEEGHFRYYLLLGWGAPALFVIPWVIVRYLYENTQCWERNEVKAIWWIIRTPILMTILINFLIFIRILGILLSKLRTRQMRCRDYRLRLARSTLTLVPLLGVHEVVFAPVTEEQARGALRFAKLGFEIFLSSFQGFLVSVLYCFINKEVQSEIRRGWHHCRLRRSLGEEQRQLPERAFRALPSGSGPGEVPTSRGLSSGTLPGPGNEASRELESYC
Outline: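 Ki values are geometric means (SEM, n independent days), derived from four-parameter nonlinear regression of IC50. Membranes came from hGIPR-expressing CHO cells.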

[1] = molecular target: T2, human glucose-dependent insulinotropic peptide receptor (GIPR) (Homo sapiens, UniProt P48546); test: cAMP functional assay (HTRF) in HEK293 cells in presence of 0.1% casein; type: cell-based; settings: HEK293 cells expressing human GIPR, geometric mean, read-out: hGIPR cAMP Rel EC50 nM (SEM, n)
T2 construct: expressed in transfected cells; host or cells: HEK293
T2 sequence (P48546 22-466): T1 sequence (P48546 22-466)

SMILES | Ki (human GIPR) | EC50 [1]
CC[C@H](C)[C@H](NC(=O)[C@H](Cc1ccccc1)NC(=O)[C@@H](NC(=O)CNC(=O)[C@H](CCC(=O)O)NC(=O)C(C)(C)NC(=O)[C@@H](N)Cc1ccc(O)cc1)[C@@H](C)O)C(=O)N[C@@H](CO)C(=O)N[C@@H](CC(=O)O)C(=O)N[C@@H](Cc1ccc(O)cc1)C(=O)N[C@@H](CO)C(=O)N[C@H](C(=O)N[C@@](C)(CC(C)C)C(=O)N[C@@H](CC(C)C)C(=O)N[C@@H](CC(=O)O)C(=O)N[C@@H](CCCCN)C(=O)N[C@@H](CCCCNC(=O)COCCOCCNC(=O)COCCOCCNC(=O)CC[C@H](NC(=O)CCCCCCCCCCCCCCCCCCC(=O)O)C(=O)O)C(=O)N[C@@H](Cc1c[nH]cn1)C(=O)N[C@@H](CCC(N)=O)C(=O)NC(C)(C)C(=O)N[C@@H](CC(=O)O)C(=O)N[C@@H](Cc1ccccc1)C(=O)N[C@H](C(=O)N[C@@H](CCC(=O)O)C(=O)N[C@@H](Cc1ccc(O)cc1)C(=O)N[C@@H](CC(C)C)C(=O)N[C@@H](CC(C)C)C(=O)N[C@@H](CCC(=O)O)C(=O)N[C@@H](C)C(=O)NCC(=O)N1CCC[C@H]1C(=O)N[C@@H](CO)C(=O)N[C@@H](CO)C(=O)NCC(=O)N[C@@H](C)C(=O)N1CCC[C@H]1C(=O)N1CCC[C@H]1C(=O)N1CCC[C@H]1C(=O)N[C@@H](CO)C(N)=O)C(C)C)[C@@H](C)CC [Example 68] (H-Y[Aib]EGTFISDYSI[αMeL]LDKK([AEEA-AEEA-γGlu-C20 diacid])HQ[Aib]DFVEYLLEAGPSSGAPPPS-NH2) | 0.0948 nM | 0.0768 nM
CC[C@H](C)[C@H](NC(=O)[C@H](Cc1ccccc1)NC(=O)[C@@H](NC(=O)CNC(=O)[C@H](CCC(=O)O)NC(=O)C(C)(C)NC(=O)[C@@H](N)Cc1ccc(O)cc1)[C@@H](C)O)C(=O)N[C@@H](CO)C(=O)N[C@@H](CC(=O)O)C(=O)N[C@@H](Cc1ccc(O)cc1)C(=O)N[C@@H](CO)C(=O)N[C@H](C(=O)N[C@@](C)(CC(C)C)C(=O)N[C@@H](CC(C)C)C(=O)N[C@@H](CC(=O)O)C(=O)N[C@@H](CCCCN)C(=O)N[C@@H](CCCCNC(=O)COCCOCCNC(=O)COCCOCCNC(=O)CC[C@H](NC(=O)CCCCCCCCCCCCCCCCCCC(=O)O)C(=O)O)C(=O)N[C@@H](Cc1c[nH]cn1)C(=O)N[C@@H](CCC(N)=O)C(=O)NC(C)(C)C(=O)N[C@@H](CC(=O)O)C(=O)N[C@@H](Cc1ccccc1)C(=O)N[C@H](C(=O)N[C@@H](CCC(=O)O)C(=O)N[C@@H](Cc1ccc(O)cc1)C(=O)N[C@@H](CC(C)C)C(=O)N[C@@H](CC(C)C)C(=O)N[C@@H](CCC(=O)O)C(=O)NCC(=O)NCC(=O)N1CCC[C@H]1C(=O)N[C@@H](CO)C(=O)N[C@@H](CO)C(=O)NCC(=O)N[C@@H](C)C(=O)N1CCC[C@H]1C(=O)N1CCC[C@H]1C(=O)N1CCC[C@H]1C(=O)N[C@@H](CO)C(N)=O)C(C)C)[C@@H](C)CC [Example 69] (H-Y[Aib]EGTFISDYSI[αMeL]LDKK([AEEA-AEEA-γGlu-C20 diacid])HQ[Aib]DFVEYLLEGGPSSGAPPPS-NH2) | 0.0406 nM | 0.0302 nM
CC[C@H](C)[C@H](NC(=O)[C@H](Cc1ccccc1)NC(=O)[C@@H](NC(=O)CNC(=O)[C@H](CCC(=O)O)NC(=O)C(C)(C)NC(=O)[C@@H](N)Cc1ccc(O)cc1)[C@@H](C)O)C(=O)N[C@@H](CO)C(=O)N[C@@H](CC(=O)O)C(=O)N[C@@H](Cc1ccc(O)cc1)C(=O)N[C@@H](CO)C(=O)N[C@H](C(=O)N[C@@](C)(CC(C)C)C(=O)N[C@@H](CC(C)C)C(=O)N[C@@H](CC(=O)O)C(=O)N[C@@H](CCCCN)C(=O)N[C@@H](CCCCNC(=O)COCCOCCNC(=O)COCCOCCNC(=O)CC[C@H](NC(=O)CCCCCCCCCCCCCCCCCCC(=O)O)C(=O)O)C(=O)N[C@@H](Cc1c[nH]cn1)C(=O)N[C@@H](CCC(N)=O)C(=O)NC(C)(C)C(=O)N[C@@H](CC(=O)O)C(=O)N[C@@H](Cc1ccccc1)C(=O)N[C@H](C(=O)N[C@@H](CCC(=O)O)C(=O)N[C@@H](Cc1ccncc1)C(=O)N[C@@H](CC(C)C)C(=O)N[C@@H](CC(C)C)C(=O)N[C@@H](C)C(=O)N[C@H](C(=O)NCC(=O)N1CCC[C@H]1C(=O)N[C@@H](CO)C(=O)N[C@@H](CO)C(=O)NCC(=O)N[C@@H](C)C(=O)N1CCC[C@H]1C(=O)N1CCC[C@H]1C(=O)N1CCC[C@H]1C(=O)N[C@@H](CO)C(N)=O)[C@@H](C)O)C(C)C)[C@@H](C)CC [Example 70] (H-Y[Aib]EGTFISDYSI[αMeL]LDKK([AEEA-AEEA-γGlu-C20 diacid])HQ[Aib]DFVE[4Pal]LLATGPSSGAPPPS-NH2) | 0.0421 nM | 0.0254 nM
CC[C@H](C)[C@H](NC(=O)[C@H](Cc1ccccc1)NC(=O)[C@@H](NC(=O)CNC(=O)[C@H](CCC(=O)O)NC(=O)C(C)(C)NC(=O)[C@@H](N)Cc1ccc(O)cc1)[C@@H](C)O)C(=O)N[C@@H](CO)C(=O)N[C@@H](CC(=O)O)C(=O)N[C@@H](Cc1ccc(O)cc1)C(=O)N[C@@H](CO)C(=O)N[C@H](C(=O)N[C@@](C)(CC(C)C)C(=O)N[C@@H](CC(C)C)C(=O)N[C@@H](CC(=O)O)C(=O)N[C@@H](CCCCN)C(=O)N[C@@H](CCCCNC(=O)COCCOCCNC(=O)COCCOCCNC(=O)CC[C@H](NC(=O)CCCCCCCCCCCCCCCCCCC(=O)O)C(=O)O)C(=O)N[C@@H](Cc1c[nH]cn1)C(=O)N[C@@H](CCC(N)=O)C(=O)NC(C)(C)C(=O)N[C@@H](CC(=O)O)C(=O)N[C@@H](Cc1ccccc1)C(=O)N[C@H](C(=O)N[C@@H](CCC(=O)O)C(=O)N[C@@H](Cc1c[nH]c2ccccc12)C(=O)N[C@@H](CC(C)C)C(=O)N[C@@H](CC(C)C)C(=O)N[C@@H](CCC(=O)O)C(=O)N[C@H](C(=O)NCC(=O)N1CCC[C@H]1C(=O)N[C@@H](CO)C(=O)N[C@@H](CO)C(=O)NCC(=O)N[C@@H](C)C(=O)N1CCC[C@H]1C(=O)N1CCC[C@H]1C(=O)N1CCC[C@H]1C(=O)N[C@@H](CO)C(N)=O)[C@@H](C)O)C(C)C)[C@@H](C)CC [Example 71] (H-Y[Aib]EGTFISDYSI[αMeL]LDKK([AEEA-AEEA-γGlu-C20 diacid])HQ[Aib]DFVEWLLETGPSSGAPPPS-NH2) | 0.0422 nM | 0.0721 nM
CC[C@H](C)[C@H](NC(=O)[C@H](CC(C)C)NC(=O)[C@@H](NC(=O)CNC(=O)[C@H](CCC(=O)O)NC(=O)C(C)(C)NC(=O)[C@@H](N)Cc1ccc(O)cc1)[C@@H](C)O)C(=O)N[C@@H](CO)C(=O)N[C@@H](CC(=O)O)C(=O)N[C@@H](Cc1ccc(O)cc1)C(=O)N[C@@H](CO)C(=O)N[C@H](C(=O)N[C@@](C)(CC(C)C)C(=O)N[C@@H](CC(C)C)C(=O)N[C@@H](CC(=O)O)C(=O)N[C@@H](CCCCN)C(=O)N[C@@H](CCCCNC(=O)COCCOCCNC(=O)COCCOCCNC(=O)CC[C@H](NC(=O)CCCCCCCCCCCCCCCCCCC(=O)O)C(=O)O)C(=O)N[C@@H](Cc1c[nH]cn1)C(=O)N[C@@H](CCC(N)=O)C(=O)NC(C)(C)C(=O)N[C@@H](CCC(=O)O)C(=O)N[C@@H](Cc1ccccc1)C(=O)N[C@H](C(=O)N[C@@H](CCC(=O)O)C(=O)N[C@@H](Cc1ccc(O)cc1)C(=O)N[C@@H](CC(C)C)C(=O)N[C@@H](CC(C)C)C(=O)N[C@@H](CCC(=O)O)C(=O)N[C@H](C(=O)NCC(=O)N1CCC[C@H]1C(=O)N[C@@H](CO)C(=O)N[C@@H](CO)C(=O)NCC(=O)N[C@@H](C)C(=O)N1CCC[C@H]1C(=O)N1CCC[C@H]1C(=O)N1CCC[C@H]1C(=O)N[C@@H](CO)C(N)=O)[C@@H](C)O)C(C)C)[C@@H](C)CC [Example 72] (H-Y[Aib]EGTLISDYSI[αMeL]LDKK([AEEA-AEEA-γGlu-C20 diacid])HQ[Aib]EFVEYLLETGPSSGAPPPS-NH2) | 0.0594 nM | 0.0182 nM
